# Measurements as given in publication PMC12234328, “A naphthalimide derivative exerts potent antiplatelet and antithrombotic activities without a bleeding tendency” (Frontiers in Pharmacology, 2025).
# What was measured:
# [1] = system: human platelet suspensions stimulated with convulxin; test: Convulxin-induced platelet aggregation; format: cell-based; settings: 10–50 μM, convulxin 4 ng/mL
# Excerpt: This study received approval from the Taipei Medical University–Joint Institutional Review Board (TMU-JIRB-No. N202003148) and adhered to the principles of the Declaration of Helsinki. Informed consent was obtained from all volunteers before their participation. Human platelets were washed and prepared according to previously established methods ([Lu et al., 2019]). Whole blood was collected from healthy participants who had not taken any medications, including nonsteroidal anti-inflammatory drugs or aspirin, in the preceding 2 weeks. The blood was drawn into polypropylene tubes containing an acid citrate–dextrose solution (9:1, v/v). After mixing, the samples were centrifuged at 120 g for 10 min. The upper layer of platelet-rich plasma was collected and supplemented with prostaglandin E1 and heparin. Following further centrifugation at 500 g for 10 min, the platelet pellets were washed twice. The platelets were then resuspended in Tyrode’s solution containing 3.5 mg/mL bovine serum albumin (B.S.A.) to create platelet suspensions. The final Ca^2+ concentration of the platelet suspensions (3.6 × 10^8 cells/mL) was 1 mM.
# Platelet aggregation was measured using a lumi-aggregometer (Payton, Scarborough, Canada) through the turbidimetric method ([Lu et al., 2019]). […] Subsequently, various agonists were added and platelet aggregation was then recorded for an additional 6 min. […]
# [2] = system: collagen/epinephrine-induced pulmonary thrombosis; test: Collagen/epinephrine-induced pulmonary embolism in mice; format: in vivo; settings: 1.2 mg/kg i.v., relative to DMSO group
# Method: Pulmonary embolism was induced using collagen and epinephrine in […] ICR mice according. Briefly, mice were intravenously injected with a bolus dose of DMSO (1.1 g/kg, solvent control), compound 6 (1.2 mg/kg), or aspirin (20 mg/kg, positive control). Subsequently, a mixture of collagen (0.6 mg/kg) and epinephrine (0.2 mg/kg) was administered via the tail vein. When respiration became severely weakened but the heart was still beating, 0.5 mL of Evans blue solution (1% in saline) was injected into the heart. The lungs were then excised and photographed. Mouse mortality was monitored for 24 h, and all surviving mice were euthanized immediately after the experiment. Each group consisted of six animals.
# FIGURE 4 Effects of compound 6 on collagen/epinephrine-induced pulmonary thrombosis and FeCl3-induced thrombosis in mesenteric artery. Mice were intravenously administered with DMSO (solvent control), compound 6 (1.2 mg/kg), or aspirin (20 mg/kg, positive control) for 10 min (A) Mice were injected with collagen/epinephrine to induce pulmonary embolism, which was detected through staining with Evans blue (left panel). The survival rate was recorded for 24 h (right panel). […]
# (A) Mice were injected with collagen/epinephrine to induce pulmonary embolism, which was detected through staining with Evans blue. (B) The survival rate was recorded for 24 h. […]
# [3] = system: collagen-triggered ATP release in human platelets; test: ATP release in human platelet suspensions (luciferase/luciferin); format: cell-based; settings: 2.5 and 5 μM, collagen 1 μg/mL, n = 4
# Method: Adenosine triphosphate (ATP) release and calcium mobilization were assessed as previously described ([Shih et al., 2021]). Luciferase–luciferin and Fura-2 AM were used to detect ATP release and calcium mobilization, respectively. The intensity of luminescence (indicating ATP release) and the fluorescence ratio (340 nm/380 nm) for calcium mobilization were measured using a Hitachi Spectrometer F-7000 (Tokyo, Japan) following the manufacturer’s instructions.
# FIGURE 8 Effects of compound 6 on ATP release, calcium mobilization, and GPIIb–IIIa activation triggered by collagen in human platelets. Washed platelets (3.6 × 10^8 cells/mL) were treated with compound 6 (C6, 2.5 and 5 μM) or DMSO and then stimulated with collagen (1 μg/mL) to trigger ATP release (A), calcium mobilization (B), and GPIIb–IIIa activation (C) that were detected using luciferase/luciferin, Fura-2 AM, and APC–PAC1 antibodies, respectively. Data (A–C) are presented as means ± SEM (n = 4). **p < 0.01 and ***p < 0.001 compared with the resting group. #p < 0.05, ##p < 0.01, and ###p < 0.001 compared with the DMSO (solvent control) group.
compound,measurement,setting,value
CCCCN1C(=O)c2cccc3c(NCCNC(=O)C45CC6CC(CC(C6)C4)C5)ccc(c23)C1=O [compound 6],Effect on convulxin-induced platelet aggregation,[1],can inhibit convulxin-induced platelet aggregation
same,Collagen/epinephrine-induced pulmonary thrombosis (Evans blue staining of lung),[2],could prevent
same,Collagen-triggered ATP release,[3],markedly reduced
